Results reported in ChEMBL document CHEMBL5463729, “Data for DCP probe BAY 1753011” (2023).

How the values were obtained:
[1] = target: Eukaryotic elongation factor 2 kinase (Homo sapiens) (UniProt O00418); assay: Inhibition of eEF-2K(h) at 10.0 µM in the Eurofins Kinase panel; conditions: Compound concentration 10.0 uM
[2] = target: Bone morphogenetic protein receptor type-2 (Homo sapiens) (UniProt Q13873); assay: Inhibition of BMPR2(h) at 10.0 µM in the Eurofins Kinase panel; conditions: Compound concentration 10.0 uM
[3] = target: SRSF protein kinase 3 (Homo sapiens) (UniProt Q9UPE1); assay: Inhibition of MSSK1(h) at 10.0 µM in the Eurofins Kinase panel; conditions: Compound concentration 10.0 uM
[4] = target: MAP/microtubule affinity-regulating kinase 3 (Homo sapiens) (UniProt P27448); assay: Inhibition of MARK3(h) at 10.0 µM in the Eurofins Kinase panel; conditions: Compound concentration 10.0 uM
[5] = target: Calcium/calmodulin-dependent protein kinase type IV (Homo sapiens) (UniProt Q16566); assay: Inhibition of CaMKIV(h) at 10.0 µM in the Eurofins Kinase panel; conditions: Compound concentration 10.0 uM
Calcium/calmodulin-dependent protein kinase type IV (Homo sapiens), sequence (Q16566 whole entry): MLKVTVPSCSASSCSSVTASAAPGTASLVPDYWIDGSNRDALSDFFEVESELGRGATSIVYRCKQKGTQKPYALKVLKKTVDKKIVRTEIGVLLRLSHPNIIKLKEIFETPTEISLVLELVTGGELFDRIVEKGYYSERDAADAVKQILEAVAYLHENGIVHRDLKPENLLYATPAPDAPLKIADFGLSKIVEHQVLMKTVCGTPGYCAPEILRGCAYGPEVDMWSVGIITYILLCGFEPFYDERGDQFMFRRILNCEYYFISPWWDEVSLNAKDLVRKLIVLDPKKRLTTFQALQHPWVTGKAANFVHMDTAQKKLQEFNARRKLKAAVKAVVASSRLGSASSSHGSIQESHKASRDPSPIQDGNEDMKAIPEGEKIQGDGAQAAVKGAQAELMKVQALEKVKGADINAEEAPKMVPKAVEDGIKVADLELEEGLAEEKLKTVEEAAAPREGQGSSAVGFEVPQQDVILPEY

[6] = target: Serine/threonine-protein kinase WNK3 (Homo sapiens) (UniProt Q9BYP7); assay: Inhibition of WNK3(h) at 10.0 µM in the Eurofins Kinase panel; conditions: Compound concentration 10.0 uM
Serine/threonine-protein kinase WNK3 (Homo sapiens), sequence (Q9BYP7 whole entry): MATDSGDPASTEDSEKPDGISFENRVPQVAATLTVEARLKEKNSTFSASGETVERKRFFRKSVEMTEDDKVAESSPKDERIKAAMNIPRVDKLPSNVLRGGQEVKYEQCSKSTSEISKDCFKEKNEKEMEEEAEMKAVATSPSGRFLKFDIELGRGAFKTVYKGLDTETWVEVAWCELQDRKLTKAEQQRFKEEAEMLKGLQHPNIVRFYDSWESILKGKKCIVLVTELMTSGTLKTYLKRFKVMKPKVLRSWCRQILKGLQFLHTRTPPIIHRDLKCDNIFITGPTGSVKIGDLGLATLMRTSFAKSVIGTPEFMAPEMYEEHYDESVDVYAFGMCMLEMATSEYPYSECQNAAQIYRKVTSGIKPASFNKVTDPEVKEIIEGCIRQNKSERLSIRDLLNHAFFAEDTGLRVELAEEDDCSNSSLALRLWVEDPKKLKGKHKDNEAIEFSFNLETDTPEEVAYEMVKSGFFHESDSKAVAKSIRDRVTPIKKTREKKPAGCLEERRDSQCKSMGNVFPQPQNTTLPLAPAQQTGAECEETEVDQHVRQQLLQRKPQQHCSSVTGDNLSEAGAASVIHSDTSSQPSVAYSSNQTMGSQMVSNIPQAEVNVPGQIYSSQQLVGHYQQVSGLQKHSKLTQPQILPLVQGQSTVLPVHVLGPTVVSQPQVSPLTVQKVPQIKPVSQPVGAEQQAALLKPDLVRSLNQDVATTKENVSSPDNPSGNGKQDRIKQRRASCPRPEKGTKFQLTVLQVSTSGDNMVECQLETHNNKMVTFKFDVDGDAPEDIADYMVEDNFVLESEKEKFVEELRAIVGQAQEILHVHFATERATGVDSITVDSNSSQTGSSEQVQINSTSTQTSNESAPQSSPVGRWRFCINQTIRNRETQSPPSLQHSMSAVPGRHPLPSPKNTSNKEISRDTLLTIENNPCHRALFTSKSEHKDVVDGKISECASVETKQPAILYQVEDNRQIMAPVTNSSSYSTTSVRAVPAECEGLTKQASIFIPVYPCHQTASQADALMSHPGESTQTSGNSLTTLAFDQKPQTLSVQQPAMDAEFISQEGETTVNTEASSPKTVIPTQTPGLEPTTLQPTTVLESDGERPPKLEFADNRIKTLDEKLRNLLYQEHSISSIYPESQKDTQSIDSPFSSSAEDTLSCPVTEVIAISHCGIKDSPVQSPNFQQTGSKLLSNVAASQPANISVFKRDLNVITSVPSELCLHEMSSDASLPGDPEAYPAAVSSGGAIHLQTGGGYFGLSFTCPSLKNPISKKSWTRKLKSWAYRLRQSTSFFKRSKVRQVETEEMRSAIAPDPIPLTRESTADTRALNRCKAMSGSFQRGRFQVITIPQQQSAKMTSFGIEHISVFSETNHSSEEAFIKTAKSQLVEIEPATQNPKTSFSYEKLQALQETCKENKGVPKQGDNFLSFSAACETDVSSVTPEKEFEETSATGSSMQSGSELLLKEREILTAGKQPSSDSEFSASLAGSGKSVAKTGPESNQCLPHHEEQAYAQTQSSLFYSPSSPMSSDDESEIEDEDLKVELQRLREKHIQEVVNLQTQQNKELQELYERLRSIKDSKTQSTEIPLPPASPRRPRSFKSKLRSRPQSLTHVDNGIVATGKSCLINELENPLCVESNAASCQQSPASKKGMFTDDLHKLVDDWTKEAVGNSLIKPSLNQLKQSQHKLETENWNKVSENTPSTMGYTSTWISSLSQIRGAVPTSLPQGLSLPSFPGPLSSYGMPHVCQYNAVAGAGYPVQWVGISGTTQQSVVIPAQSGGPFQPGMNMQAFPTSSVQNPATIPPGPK

[7] = target: Glutamate receptor 2 (Homo sapiens) (UniProt P42262); conditions: Rattus norvegicus; Compound concentration 10.0 uM
[8] = target: Casein kinase I isoform epsilon (Homo sapiens) (UniProt P49674); assay: Inhibition of CK1epsilon(h) at 10.0 µM in the Eurofins Kinase panel; conditions: Compound concentration 10.0 uM
[9] = target: Protein kinase C delta type (Homo sapiens) (UniProt Q05655); assay: Inhibition of PKCdelta(h) at 10.0 µM in the Eurofins Kinase panel; conditions: Compound concentration 10.0 uM
[10] = target: G protein-coupled receptor kinase 3 (Homo sapiens) (UniProt P35626); assay: Inhibition of GRK3(h) at 10.0 µM in the Eurofins Kinase panel; conditions: Compound concentration 10.0 uM
[11] = target: Serine/threonine-protein kinase VRK1 (Homo sapiens) (UniProt Q99986); assay: Inhibition of VRK1(h) at 10.0 µM in the Eurofins Kinase panel; conditions: Compound concentration 10.0 uM
[12] = target: Serine/threonine-protein kinase N1 (Homo sapiens) (UniProt Q16512); assay: Inhibition of PRK1(h) at 10.0 µM in the Eurofins Kinase panel; conditions: Compound concentration 10.0 uM
[13] = target: Homeodomain-interacting protein kinase 1 (Homo sapiens) (UniProt Q86Z02); assay: Inhibition of HIPK1(h) at 10.0 µM in the Eurofins Kinase panel; conditions: Compound concentration 10.0 uM
[14] = target: Serine/threonine-protein kinase Sgk3 (Homo sapiens) (UniProt Q96BR1); assay: Inhibition of SGK3(h) at 10.0 µM in the Eurofins Kinase panel; conditions: Compound concentration 10.0 uM
[15] = target: Serine/threonine-protein kinase 33 (Homo sapiens) (UniProt Q9BYT3); assay: Inhibition of STK33(h) at 10.0 µM in the Eurofins Kinase panel; conditions: Compound concentration 10.0 uM
[16] = target: Macrophage-stimulating protein receptor (Homo sapiens) (UniProt Q04912); assay: Inhibition of Ron(h) at 10.0 µM in the Eurofins Kinase panel; conditions: Compound concentration 10.0 uM
[17] = target: Mitogen-activated protein kinase 8 (Homo sapiens) (UniProt P45983); assay: Inhibition of JNK1alpha1(h) at 10.0 µM in the Eurofins Kinase panel; conditions: Compound concentration 10.0 uM
Mitogen-activated protein kinase 8 (Homo sapiens), sequence (P45983 whole entry): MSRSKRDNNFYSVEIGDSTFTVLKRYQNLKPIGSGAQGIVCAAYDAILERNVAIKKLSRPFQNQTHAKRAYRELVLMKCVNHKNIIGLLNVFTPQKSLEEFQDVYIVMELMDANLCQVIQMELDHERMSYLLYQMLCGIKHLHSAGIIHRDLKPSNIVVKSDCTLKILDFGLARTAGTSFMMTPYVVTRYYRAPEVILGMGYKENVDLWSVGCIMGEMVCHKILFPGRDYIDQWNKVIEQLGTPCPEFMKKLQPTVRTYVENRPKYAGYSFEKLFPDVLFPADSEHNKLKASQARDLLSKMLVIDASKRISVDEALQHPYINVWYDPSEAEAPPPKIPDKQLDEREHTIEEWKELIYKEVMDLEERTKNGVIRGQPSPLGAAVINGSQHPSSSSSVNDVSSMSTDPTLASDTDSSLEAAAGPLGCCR

[18] = target: Serine/threonine-protein kinase 16 (Homo sapiens) (UniProt O75716); assay: Inhibition of STK16(h) at 10.0 µM in the Eurofins Kinase panel; conditions: Compound concentration 10.0 uM
[19] = target: Serine/threonine-protein kinase LATS1 (Homo sapiens) (UniProt O95835); assay: Inhibition of LATS1(h) at 10.0 µM in the Eurofins Kinase panel; conditions: Compound concentration 10.0 uM
[20] = target: Tyrosine-protein kinase JAK3 (Homo sapiens) (UniProt P52333); assay: Inhibition of JAK3(h) at 10.0 µM in the Eurofins Kinase panel; conditions: Compound concentration 10.0 uM
Tyrosine-protein kinase JAK3 (Homo sapiens), sequence (P52333 whole entry): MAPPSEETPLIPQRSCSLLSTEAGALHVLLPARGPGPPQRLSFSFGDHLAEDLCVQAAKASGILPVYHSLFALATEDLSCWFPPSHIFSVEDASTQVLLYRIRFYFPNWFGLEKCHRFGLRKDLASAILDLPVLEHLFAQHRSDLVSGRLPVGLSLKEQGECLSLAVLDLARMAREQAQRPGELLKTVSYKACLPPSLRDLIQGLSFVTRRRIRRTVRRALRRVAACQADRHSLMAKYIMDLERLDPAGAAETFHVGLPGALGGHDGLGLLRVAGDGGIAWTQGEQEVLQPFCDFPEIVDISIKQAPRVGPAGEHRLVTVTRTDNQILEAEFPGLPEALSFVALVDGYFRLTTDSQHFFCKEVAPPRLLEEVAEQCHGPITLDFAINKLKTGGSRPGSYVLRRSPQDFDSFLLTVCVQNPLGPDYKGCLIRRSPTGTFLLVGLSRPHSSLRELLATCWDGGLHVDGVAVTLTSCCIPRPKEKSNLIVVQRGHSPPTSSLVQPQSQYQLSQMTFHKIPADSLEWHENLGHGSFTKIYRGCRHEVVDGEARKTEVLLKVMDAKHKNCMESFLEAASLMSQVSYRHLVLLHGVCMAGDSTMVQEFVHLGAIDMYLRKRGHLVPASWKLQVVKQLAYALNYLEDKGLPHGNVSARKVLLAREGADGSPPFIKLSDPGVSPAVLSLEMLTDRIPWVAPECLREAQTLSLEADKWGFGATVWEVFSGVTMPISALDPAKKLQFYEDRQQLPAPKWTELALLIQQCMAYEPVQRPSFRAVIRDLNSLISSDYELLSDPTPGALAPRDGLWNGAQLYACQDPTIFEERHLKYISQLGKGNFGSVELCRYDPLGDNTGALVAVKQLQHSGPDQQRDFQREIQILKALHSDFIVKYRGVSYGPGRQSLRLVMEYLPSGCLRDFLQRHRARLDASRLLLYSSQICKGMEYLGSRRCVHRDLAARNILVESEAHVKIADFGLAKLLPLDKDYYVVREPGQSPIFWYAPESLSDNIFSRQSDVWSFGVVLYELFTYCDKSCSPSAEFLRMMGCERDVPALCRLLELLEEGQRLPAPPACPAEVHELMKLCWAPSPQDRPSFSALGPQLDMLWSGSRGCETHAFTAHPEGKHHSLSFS

[21] = target: Mitogen-activated protein kinase 1 (Homo sapiens) (UniProt P28482); assay: Inhibition of MAPK1(h) at 10.0 µM in the Eurofins Kinase panel; conditions: Compound concentration 10.0 uM
[22] = target: Kappa-type opioid receptor (Homo sapiens, UniProt P41145); conditions: Compound concentration 10.0 uM
Kappa-type opioid receptor, sequence (P41145 whole entry): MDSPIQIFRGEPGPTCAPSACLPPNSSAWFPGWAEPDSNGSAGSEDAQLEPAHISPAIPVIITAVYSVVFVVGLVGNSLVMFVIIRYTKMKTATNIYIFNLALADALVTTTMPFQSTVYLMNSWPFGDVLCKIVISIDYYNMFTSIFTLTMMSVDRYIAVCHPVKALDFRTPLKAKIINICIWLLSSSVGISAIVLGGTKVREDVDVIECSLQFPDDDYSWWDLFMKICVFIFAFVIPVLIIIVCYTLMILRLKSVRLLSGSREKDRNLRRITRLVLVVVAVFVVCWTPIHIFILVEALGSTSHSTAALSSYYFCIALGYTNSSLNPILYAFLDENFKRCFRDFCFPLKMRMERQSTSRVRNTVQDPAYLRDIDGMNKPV

[23] = target: Non-receptor tyrosine-protein kinase TYK2 (Homo sapiens) (UniProt P29597); assay: Inhibition of TYK2(h) at 10.0 µM in the Eurofins Kinase panel; conditions: Compound concentration 10.0 uM
[24] = target: Sodium-dependent dopamine transporter (Homo sapiens) (UniProt Q01959); conditions: Compound concentration 10.0 uM
[25] = target: Dual specificity mitogen-activated protein kinase kinase 3 (Homo sapiens) (UniProt P46734); assay: Inhibition of MKK3(h) at 10.0 µM in the Eurofins Kinase panel; conditions: Compound concentration 10.0 uM
[26] = target: Serine/threonine-protein kinase VRK2 (Homo sapiens) (UniProt Q86Y07); assay: Inhibition of VRK2(h) at 10.0 µM in the Eurofins Kinase panel; conditions: Compound concentration 10.0 uM
[27] = target: Serine/threonine-protein kinase Nek7 (Homo sapiens) (UniProt Q8TDX7); assay: Inhibition of NEK7(h) at 10.0 µM in the Eurofins Kinase panel; conditions: Compound concentration 10.0 uM
[28] = target: Dual specificity protein kinase CLK1 (Homo sapiens) (UniProt P49759); assay: Inhibition of CLK1(h) at 10.0 µM in the Eurofins Kinase panel; conditions: Compound concentration 10.0 uM
[29] = target: Protein kinase C gamma type (Homo sapiens) (UniProt P05129); assay: Inhibition of PKCgamma(h) at 10.0 µM in the Eurofins Kinase panel; conditions: Compound concentration 10.0 uM
[30] = target: Leukocyte tyrosine kinase receptor (Homo sapiens) (UniProt P29376); assay: Inhibition of LTK(h) at 10.0 µM in the Eurofins Kinase panel; conditions: Compound concentration 10.0 uM
[31] = target: Ephrin type-A receptor 4 (Homo sapiens) (UniProt P54764); assay: Inhibition of EphA4(h) at 10.0 µM in the Eurofins Kinase panel; conditions: Compound concentration 10.0 uM
[32] = target: Insulin-like growth factor 1 receptor (Homo sapiens) (UniProt P08069); assay: Inhibition of IGF-1R(h), activated at 10.0 µM in the Eurofins Kinase panel; conditions: Compound concentration 10.0 uM
[33] = target: Serine/threonine-protein kinase 24 (Homo sapiens) (UniProt Q9Y6E0); assay: Inhibition of MST3(h) at 10.0 µM in the Eurofins Kinase panel; conditions: Compound concentration 10.0 uM
[34] = target: Tyrosine-protein kinase ZAP-70 (Homo sapiens) (UniProt P43403); assay: Inhibition of ZAP-70(h) at 10.0 µM in the Eurofins Kinase panel; conditions: Compound concentration 10.0 uM
[35] = target: Dual specificity tyrosine-phosphorylation-regulated kinase 1A (Homo sapiens) (UniProt Q13627); assay: Inhibition of DYRK1A(h) at 10.0 µM in the Eurofins Kinase panel; conditions: Compound concentration 10.0 uM
[36] = target: Muscarinic acetylcholine receptor M3 (Homo sapiens) (UniProt P20309); conditions: Compound concentration 10.0 uM
Muscarinic acetylcholine receptor M3 (Homo sapiens), sequence (P20309 whole entry, looked up): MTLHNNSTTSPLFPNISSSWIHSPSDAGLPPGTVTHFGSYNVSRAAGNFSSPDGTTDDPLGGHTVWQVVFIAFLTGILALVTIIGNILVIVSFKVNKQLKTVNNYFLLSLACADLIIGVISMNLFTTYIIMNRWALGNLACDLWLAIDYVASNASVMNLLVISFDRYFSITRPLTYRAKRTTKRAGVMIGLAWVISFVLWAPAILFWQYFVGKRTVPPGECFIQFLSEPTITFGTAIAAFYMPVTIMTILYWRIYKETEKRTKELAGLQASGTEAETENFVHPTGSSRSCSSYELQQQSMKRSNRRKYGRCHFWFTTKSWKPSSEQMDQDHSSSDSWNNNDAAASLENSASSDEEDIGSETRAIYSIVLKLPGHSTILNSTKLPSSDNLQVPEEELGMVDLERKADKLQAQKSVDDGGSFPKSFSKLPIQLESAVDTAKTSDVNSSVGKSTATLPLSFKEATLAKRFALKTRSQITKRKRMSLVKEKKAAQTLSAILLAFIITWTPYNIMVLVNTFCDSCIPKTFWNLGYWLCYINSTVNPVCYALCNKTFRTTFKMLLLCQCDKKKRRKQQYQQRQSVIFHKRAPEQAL

[37] = target: Endothelin-1 receptor (Homo sapiens) (UniProt P25101); conditions: Compound concentration 10.0 uM
[38] = target: CDK4/Cyclin D3 (Homo sapiens) (UniProt P11802+P30281); assay: Inhibition of CDK4/cyclinD3(h) at 10.0 µM in the Eurofins Kinase panel; format: protein-complex assay; conditions: Compound concentration 10.0 uM
[39] = target: Serine/threonine-protein kinase LATS2 (Homo sapiens) (UniProt Q9NRM7); assay: Inhibition of LATS2(h) at 10.0 µM in the Eurofins Kinase panel; conditions: Compound concentration 10.0 uM

Row | Compound | inhibition [1] [%] | inhibition [2] [%] | inhibition [3] [%] | inhibition [4] [%] | inhibition [5] [%] | inhibition [6] [%] | inhibition [7] [%] | inhibition [8] [%] | inhibition [9] [%] | inhibition [10] [%] | inhibition [11] [%] | inhibition [12] [%] | inhibition [13] [%] | inhibition [14] [%] | inhibition [15] [%] | inhibition [16] [%] | inhibition [17] [%] | inhibition [18] [%] | inhibition [19] [%] | inhibition [20] [%] | other results
1 | O=c1n(Cc2cncn2-c2cccc(Cl)c2)nc(-c2ccc(Cl)cc2)n1C[C@H](O)C(F)(F)F | -4.87 | 14.4 | 9.31 | -3.59 | 8.3 | -2.58 | 3 | 4.45 | -4.61 | -3.13 | 15.7 | -8.29 | 1.31 | -5.09 | 6.15 | -7.87 | -1.22 | -0.13 | -2.66 | 2.81 | inhibition [21]: -0.83%; inhibition [22]: 3.83%; inhibition [23]: 5.83%; inhibition [24]: 19%; inhibition [25]: -0.4%; inhibition [26]: 10.4%; inhibition [27]: 1.5%; inhibition [28]: 7.05%; inhibition [29]: -1.26%; inhibition [30]: 5.77%; inhibition [31]: 0.23%; inhibition [32]: -4.33%; inhibition [33]: 5.64%; inhibition [34]: 8.99%; inhibition [35]: 3.54%; inhibition [36]: 4%; inhibition [37]: -3%; inhibition [38]: 7.51%; inhibition [39]: 5.08%
2 | C[C@H](O)c1nc(Cn2nc(-c3ccc(Cl)cc3)n(C[C@H](O)C(F)(F)F)c2=O)nn1-c1cccc(Cl)c1 [PECAVAPTAN] | -9.42 | 11.1 | -9.95 | -2.13 | 10.3 | -3.44 | 2 | 1.26 | 2.12 | 2.8 | 12.3 | -3.85 | -2.92 | -6.13 | 6.36 | -9.41 | -3.82 | 4.07 | -5.36 | -1.87 | inhibition [21]: 7.33%; inhibition [22]: 62.4%; inhibition [23]: 8.75%; inhibition [24]: 4%; inhibition [25]: -0.58%; inhibition [26]: 6.61%; inhibition [27]: 3.8%; inhibition [28]: 7.77%; inhibition [29]: 3.24%; inhibition [30]: 4.2%; inhibition [31]: -0.37%; inhibition [32]: -6.92%; inhibition [33]: 3.02%; inhibition [34]: 2.69%; inhibition [35]: 8.95%; inhibition [36]: 8%; inhibition [37]: 18%; inhibition [38]: 5.58%; inhibition [39]: 3.15%
